Experimental findings from US11939314B2, “Quinolin-2-one derivatives” (MERCK PATENT GMBH, priority 2016, dated 2024) are described below.

One may read the IC50 as the point on the concentration scale where inhibition reaches its midpoint.

Each structure is given as a SMILES string.

Test [1] deals with T1, c-Kit(V654A) (Homo sapiens, UniProt P10721, V654A).
T1 construct: amino acids 544-end containing the V654A mutation; GST (N)
The test can be described thus: c-Kit(V654A) assay. The format is biochemical. Conditions: recombinant human c-Kit aa 544-end, 200 μM ATP, 1.4E-06 means 1.4×10^−6, read-out: Inhibition (IC50) of c-KIT (V654A). The procedure, abridged: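 Radiometric filter-binding read-out: substrate 33P incorporation counted by scintillation after P30 filtermat washes in 75 mM phosphoric acid and methanol. Enzyme: N-GST recombinant human c-Kit aa 544-end carrying V654A.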

For test [2], the target named is T2, PDGFRalpha(V561D) (Homo sapiens, UniProt P16234, V561D).
T2 construct: recombinant human PDGFRalpha, amino acids 550end containing the V561 D mutation; 6His (N)
The test can be described thus: PDGFRalpha(V561D) assay. The note with it: recombinant human PDGFRalpha aa 550-end, 200 μM ATP, 1.4E-06 means 1.4×10^−6, read-out: Inhibition (IC50) of PDGFRα (V561D). It is filed as biochemical. The essentials: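 Radiometric filter-binding assay: substrate phosphorylation by recombinant N-His-tagged human PDGFRα 550-end V561D was quenched with 3% phosphoric acid after 40 min at room temperature, then counted.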

T1 sequence (P10721 544-976 V654A): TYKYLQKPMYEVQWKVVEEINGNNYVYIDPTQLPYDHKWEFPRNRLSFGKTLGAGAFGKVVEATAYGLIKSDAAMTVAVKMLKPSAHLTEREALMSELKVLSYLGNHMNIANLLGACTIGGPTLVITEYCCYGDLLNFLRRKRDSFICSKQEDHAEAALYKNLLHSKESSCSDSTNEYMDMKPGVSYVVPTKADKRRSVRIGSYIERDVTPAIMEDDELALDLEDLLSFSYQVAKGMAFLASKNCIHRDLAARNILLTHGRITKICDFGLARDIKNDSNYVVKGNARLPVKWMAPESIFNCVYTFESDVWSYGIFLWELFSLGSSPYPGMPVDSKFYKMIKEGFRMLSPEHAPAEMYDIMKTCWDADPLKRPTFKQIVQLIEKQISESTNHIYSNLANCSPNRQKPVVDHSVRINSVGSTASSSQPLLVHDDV
T2 sequence (P16234 550-1089 V561D): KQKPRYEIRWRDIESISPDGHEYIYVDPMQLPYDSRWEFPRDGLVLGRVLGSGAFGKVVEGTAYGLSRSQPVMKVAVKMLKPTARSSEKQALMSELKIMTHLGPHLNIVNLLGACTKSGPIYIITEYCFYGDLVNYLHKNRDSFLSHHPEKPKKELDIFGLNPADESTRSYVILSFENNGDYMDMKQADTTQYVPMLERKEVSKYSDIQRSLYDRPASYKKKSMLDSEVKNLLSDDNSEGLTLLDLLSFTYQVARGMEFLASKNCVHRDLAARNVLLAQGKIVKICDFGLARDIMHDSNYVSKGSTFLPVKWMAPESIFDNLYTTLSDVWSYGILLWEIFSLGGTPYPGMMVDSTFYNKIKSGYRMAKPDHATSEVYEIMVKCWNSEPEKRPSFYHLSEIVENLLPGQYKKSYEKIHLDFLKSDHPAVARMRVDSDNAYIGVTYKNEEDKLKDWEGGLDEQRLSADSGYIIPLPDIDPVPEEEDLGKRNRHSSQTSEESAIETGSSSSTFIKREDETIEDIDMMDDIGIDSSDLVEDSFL

Turning to `CN1CCN(CCOc2ccc(-n3cc(-c4cc5ccccc5[nH]c4=O)nn3)cc2)CC1` [A72, 3-(1-{4-[2-(4-methyl-piperazin-1-yl)-ethoxy]-phenyl}-1H-[1,2,3]triazol-4-yl)-1H-quinolin-2-one], the IC50 stood at 11 nM in test [1] and 4 nM in test [2].
The matching figures for `CN1CCN(C(=O)c2ccc(-n3cc(-c4cc5ccccc5[nH]c4=O)cn3)cc2)CC1` [A74, 3-{1-[4-(4-methyl-piperazine-1-carbonyl)-phenyl]-1H-pyrazol-4-yl}-1H-quinolin-2-one]: 8 nM and 6 nM.
The matching figures for `O=c1[nH]c2ccccc2cc1-c1cnn(-c2ccccc2)c1` [A75, 3-(1-phenyl-1H-pyrazol-4-yl)-1H-quinolin-2-one]: 48 nM and 18 nM.
The matching figures for `O=C(c1cccc(-n2cc(-c3cc4ccccc4[nH]c3=O)nn2)c1)N1CCOCC1` [A76, 3-{1-[3-(morpholine-4-carbonyl)-phenyl]-1H-[1,2,3]triazol-4-yl}-1H-quinolin-2-one]: 49 nM and 30 nM.
Turning to `O=C(O)c1ccc(-n2cc(-c3cc4cccnc4[nH]c3=O)nn2)cc1` [A77, 4-[4-(2-Oxo-1,2-dihydro-[1,8]naphthyridin-3-yl)-[1,2,3]triazol-1-yl]-benzoic acid], the IC50 was 470 nM in test [1] and 110 nM in test [2].
Consider `O=C(c1cccc(-n2cc(-c3cc4ccccc4[nH]c3=O)nn2)c1)N1CCNCC1` [A78, 3-{1-[3-(piperazine-1-carbonyl)-phenyl]-1H-[1,2,3]triazol-4-yl}-1H-quinolin-2-one], for which the IC50 in test [1] was 17 nM; in test [2], 31 nM.
Take `CN1CCN(C(=O)c2cccc(-n3cc(-c4cc5ccccc5[nH]c4=O)nn3)c2)CC1` [A79, 3-{1-[3-(4-methyl-piperazine-1-carbonyl)-phenyl]-1H-[1,2,3]triazol-4-yl}-1H-quinolin-2-one]: the IC50 in test [1] came to 33 nM; in test [2], 31 nM.
The matching figures for `C=C(C)c1ccc(-n2cc(-c3cc4ccccc4[nH]c3=O)nn2)cc1` [A80, 3-[1-(4-isopropenyl-phenyl)-1H-[1,2,3]triazol-4-yl]-1H-quinolin-2-one]: 120 nM and 44 nM.
With `CC(C)(c1ccc(-n2cc(-c3cc4ccccc4[nH]c3=O)nn2)cc1)S(C)(=O)=O` [A81, 3-{1-[4-(1-methanesulfonyl-1-methyl-ethyl)-phenyl]-1H-[1,2,3]triazol-4-yl}-1H-quinolin-2-one], the IC50 is 17 nM in test [1] and 6 nM in test [2].
The matching figures for `O=C(c1ccc(-n2cc(-c3cc4ccc(Cl)cc4[nH]c3=O)nn2)cc1)N1CCOCC1` [A82, 7-chloro-3-{1-[4-(morpholine-4-carbonyl)-phenyl]-1H-[1,2,3]triazol-4-yl}-1H-quinolin-2-one]: 14 nM and 3 nM.
The matching figures for `O=C(c1ccc(-n2cc(-c3cc4ccc(F)cc4[nH]c3=O)nn2)cc1)N1CCOCC1` [A83, 7-fluoro-3-{1-[4-(morpholine-4-carbonyl)-phenyl]-1H-[1,2,3]triazol-4-yl}-1H-quinolin-2-one]: 10 nM and 3 nM.
The matching figures for `Cc1ccc2cc(-c3cn(-c4ccc(C(=O)N5CCOCC5)cc4)nn3)c(=O)[nH]c2c1` [A84, 7-methyl-3-{1-[4-(morpholine-4-carbonyl)-phenyl]-1H-[1,2,3]triazol-4-yl}-1H-quinolin-2-one]: 48 nM and 5 nM.
Turning to `O=C(c1ccc(-n2cc(-c3cc4ncccc4[nH]c3=O)nn2)cc1)N1CCOCC1` [A85, 3-{1-[4-(morpholine-4-carbonyl)-phenyl]-1H-[1,2,3]triazol-4-yl}-1H-[1,5]naphthyridin-2-one], the values for the IC50 in test [1] and in test [2] were 1300 nM and 1700 nM, respectively.
Consider `COCCCN1CCN(C(=O)c2ccc(-n3cc(-c4cc5cc(F)ccc5[nH]c4=O)nn3)cc2)CC1` [A86, 6-fluoro-3-(1-{4-[4-(3-methoxy-propyl)-piperazine-1-carbonyl]-phenyl}-1H-[1,2,3]triazol-4-yl)-1H-quinolin-2-one], for which the figures for the IC50 in test [1] and in test [2] were 11 nM and 2 nM, respectively.
The matching figures for `COCCCN1CCN(C(=O)c2ccc(-n3cc(-c4cc5c(F)cccc5[nH]c4=O)nn3)cc2)CC1` [A87, 5-fluoro-3-(1-{4-[4-(3-methoxy-propyl)-piperazine-1-carbonyl]-phenyl}-1H-[1,2,3]triazol-4-yl)-1H-quinolin-2-one]: 25 nM and 12 nM.
The matching figures for `COCCCN1CCN(C(=O)c2ccc(-n3cc(-c4cc5cc(F)cnc5[nH]c4=O)nn3)cc2)CC1` [A88, 6-fluoro-3-(1-{4-[4-(3-methoxy-propyl)-piperazine-1-carbonyl]-phenyl}-1H-[1,2,3]triazol-4-yl)-1H-[1,8]naphthyridin-2-one]: 90 nM and 6 nM.
`COCCCN1CCN(C(=O)c2ccc(-n3cc(-c4cc5cccnc5[nH]c4=O)nn3)cc2)CC1` [A89, 3-(1-{4-[4-(3-methoxy-propyl)-piperazine-1-carbonyl]-phenyl}-1H-[1,2,3]triazol-4-yl)-1H-[1,8]naphthyridin-2-one]: the IC50 in test [1] turned out to be 36 nM; in test [2], 8 nM.
The matching figures for `O=C(c1ccc(-n2cc(-c3cc4c(F)cc(F)cc4[nH]c3=O)nn2)cc1)N1CCOCC1` [A90, 5,7-difluoro-3-{1-[4-(morpholine-4-carbonyl)-phenyl]-1H-[1,2,3]triazol-4-yl}-1H-quinolin-2-one]: 20 nM and 29 nM.
Regarding `O=C(c1ccc(-n2cc(-c3cc4ccc(Br)cc4[nH]c3=O)nn2)cc1)N1CCOCC1` [A91, 7-bromo-3-{1-[4-(morpholine-4-carbonyl)-phenyl]-1H-[1,2,3]triazol-4-yl}-1H-quinolin-2-one], the figures for the IC50 in test [1] and in test [2] were 19 nM and 8.2 nM, respectively.
The matching figures for `CN1CCN(C(=O)c2ccc(-n3cc(-c4cc5cc(F)ccc5[nH]c4=O)nn3)cc2)CC1=O` [A92, 6-fluoro-3-{1-[4-(4-methyl-3-oxo-piperazine-1-carbonyl)-phenyl]-1H-[1,2,3]triazol-4-yl}-1H-quinolin-2-one]: 21 nM and 5.9 nM.
The matching figures for `COc1ccc2cc(-c3cn(-c4ccc(C(=O)N5CCOCC5)cc4)nn3)c(=O)[nH]c2c1` [A93, 7-methoxy-3-{1-[4-(morpholine-4-carbonyl)-phenyl]-1H-[1,2,3]triazol-4-yl}-1H-quinolin-2-one]: 320 nM and 310 nM.
The matching figures for `O=C(c1ccc(-n2cc(-c3cc4cncnc4[nH]c3=O)nn2)cc1)N1CCOCC1` [A94, 6-{1-[4-(Morpholine-4-carbonyl)-phenyl]-1H-[1,2,3]triazol-4-yl}-8H-pyrido[2,3-d]pyrimidin-7-one]: 3600 nM and 2300 nM.
Turning to `O=c1[nH]c2ccc(F)cc2cc1-c1cn(-c2cccc(OCCN3CCOCC3)c2)nn1` [A94a, 6-fluoro-3-{1-[3-(2-morpholin-4-yl-ethoxy)-phenyl]-1H-[1,2,3]triazol-4-yl}-1H-quinolin-2-one], the IC50 in test [1] was 60 nM; in test [2], 54 nM.
The matching figures for `CN1CCN(C(=O)c2ccc(-n3cc(-c4cc5c(F)cc(F)cc5[nH]c4=O)nn3)cc2)CC1=O` [A95, 5,7-difluoro-3-{1-[4-(4-methyl-3-oxo-piperazine-1-carbonyl)-phenyl]-1H-[1,2,3]triazol-4-yl}-1H-quinolin-2-one]: 9 nM and 370 nM.
The matching figures for `CN1CCN(C(=O)c2ccc(-n3cc(-c4cc5cc(Cl)ccc5[nH]c4=O)nn3)cc2)CC1=O` [A96, 6-chloro-3-{1-[4-(4-methyl-3-oxo-piperazine-1-carbonyl)-phenyl]-1H-[1,2,3]triazol-4-yl}-1H-quinolin-2-one]: 5.2 nM and 0.33 nM.
As to `CN1CCN(C(=O)c2ccc(-n3cc(-c4cc5ccc(Cl)cc5[nH]c4=O)nn3)cc2)CC1=O` [A97, 7-chloro-3-{1-[4-(4-methyl-3-oxo-piperazine-1-carbonyl)-phenyl]-1H-[1,2,3]triazol-4-yl}-1H-quinolin-2-one], the results for the IC50 in test [1] and in test [2] were 17 nM and 10 nM, respectively.
The matching figures for `O=C1OCCN1c1ccc(-n2cc(-c3cc4cc(F)ccc4[nH]c3=O)nn2)cc1` [A98, 6-fluoro-3-{1-[4-(2-oxo-oxazolidin-3-yl)-phenyl]-1H-[1,2,3]triazol-4-yl}-1H-quinolin-2-one]: 180 nM and 75 nM.
The matching figures for `O=c1[nH]c2ccc(F)cc2cc1-c1cn(-c2ccc(N3CCCS3(=O)=O)cc2)nn1` [A99, 3-{1-[4-(1,1-dioxo-1|6-isothiazolidin-2-yl)-phenyl]-1H-[1,2,3]triazol-4-yl}-6-fluoro-1H-quinolin-2-one]: 33 nM and 76 nM.
The matching figures for `O=C(c1ccc(-n2cc(-c3cc4cc(F)ccc4[nH]c3=O)nn2)cc1)N1CCC(N2CCCC2)C1` (stereo not drawn) [A100, 3-{1-[4-([1,3′]bipyrrolidinyl-1′-carbonyl)-phenyl]-1H-[1,2,3]triazol-4-yl}-6-fluoro-1H-quinolin-2-one]: 20 nM and 63 nM.
Regarding `CC(=O)N1CCN(CCOc2ccc(-n3cc(-c4cc5cc(F)ccc5[nH]c4=O)nn3)cc2)CC1` [A100a, 3-(1-{4-[2-(4-acetyl-piperazin-1-yl)-ethoxy]-phenyl}-1H-[1,2,3]triazol-4-yl)-6-fluoro-1H-quinolin-2-one], the IC50 came to 18 nM in test [1] and 54 nM in test [2].
